Changes are numbered by the printed parent chain.
Tests used:
Type in all cases: cell-based
Kv4.2 F289A = biological target: T1, Kv4.2 F289A (Homo sapiens, UniProt Q9NZV8, F289A); assay: Patch clamp of Kv4.2 mutant F289A in HEK293T cells
T1 construct: expressed in transfected cells; host or cells: HEK293T
T1 sequence (Q9NZV8 1-630 F289A): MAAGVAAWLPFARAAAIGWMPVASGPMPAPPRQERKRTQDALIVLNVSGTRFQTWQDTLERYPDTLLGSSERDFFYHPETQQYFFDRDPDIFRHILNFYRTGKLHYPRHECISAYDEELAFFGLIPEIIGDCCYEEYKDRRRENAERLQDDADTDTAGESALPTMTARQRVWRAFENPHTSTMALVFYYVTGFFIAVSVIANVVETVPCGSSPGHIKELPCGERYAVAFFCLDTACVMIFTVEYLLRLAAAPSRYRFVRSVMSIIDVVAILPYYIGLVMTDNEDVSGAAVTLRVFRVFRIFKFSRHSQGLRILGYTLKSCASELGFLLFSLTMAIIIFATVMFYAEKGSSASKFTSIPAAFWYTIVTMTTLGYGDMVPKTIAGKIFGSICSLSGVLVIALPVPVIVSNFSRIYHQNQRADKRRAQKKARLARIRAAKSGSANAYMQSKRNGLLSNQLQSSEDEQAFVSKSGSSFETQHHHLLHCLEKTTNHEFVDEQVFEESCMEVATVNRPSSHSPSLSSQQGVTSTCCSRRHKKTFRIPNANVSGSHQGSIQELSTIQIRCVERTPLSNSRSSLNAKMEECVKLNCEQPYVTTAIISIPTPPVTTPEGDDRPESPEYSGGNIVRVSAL
T1 sequence (Q9NS61 1-270 partner): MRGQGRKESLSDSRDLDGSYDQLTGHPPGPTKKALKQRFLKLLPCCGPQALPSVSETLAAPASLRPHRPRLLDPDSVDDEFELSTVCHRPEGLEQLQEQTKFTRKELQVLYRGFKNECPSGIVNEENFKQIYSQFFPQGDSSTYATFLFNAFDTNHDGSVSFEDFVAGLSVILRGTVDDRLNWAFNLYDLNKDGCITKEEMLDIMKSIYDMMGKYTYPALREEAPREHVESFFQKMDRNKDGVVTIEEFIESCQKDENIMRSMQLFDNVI
Description: (§1) Human embryonic kidney cell line (HEK293T) was obtained from Shanghai Institute of Cell Biology, Chinese Academy of Sciences (Shanghai, China) and maintained with 5% CO2 at 37°C in DMEM supplemented with 10% heat-inactivated fetal calf and serum (FBS), penicillin (100 U/ml), and streptomycin (100 μg/ml). The WT/mutant Kv4.2 plasmids were transiently transfected into HEK293T by Lipofectamine^TM 2000 Reagent (Invitrogen), and the KChIP2 subunits were co-transfected with Kv4.2.
(§2) The extracellular buffer and pipette solution for AP, Ito, and Kv4.2 were used as follows.
(§3) Kv4.2 current, The pipette solution contained (mM) 140 KF, 5 ATP-2Na, 1 EGTA, and 10 HEPEs (pH = 7.4). […] The steady-state activation of Kv4.2 was measured with the holding potential −80 mV and applied from −80 mV to 70 mV (10-mV increments). Steady-state inactivation of Kv4.2 channel measured with a series of a 300-ms depolarizing test potential of 10 mV followed a 1000-ms prepulse at potentials ranging from −120 to +70 mV with a 5-mV increment.
(§4) Data were analyzed using the clampfit (Axon) and Origin 9 software programs. […] The steady-state activation relationship was measured using Boltzmann function (f(V) = 1/{1 + exp[−(V−V1/2)/k]}^4). Steady-state inactivation was measured using the Boltzmann function f(V) = 1/{1 + exp[−(V − V1/2)/k]}.

Kv4.2 = biological target: T2, Kv4.2 (Homo sapiens, UniProt Q9NZV8); assay: Whole-cell patch clamp of WT Kv4.2 co-expressed with KChIP2 in HEK293T cells; set-up: expressed in transfected cells; host or cells: HEK293T
T2 sequence (Q9NZV8 1-630): T1 sequence (Q9NZV8 1-630 F289A) with A289F
T2 sequence (Q9NS61 1-270 partner): T1 sequence (Q9NS61 1-270 partner)
Description: as §1, §2
Kv4.2 current, The pipette solution contained (mM) 140 KF, 5 ATP-2Na, 1 EGTA, and 10 HEPEs (pH = 7.4). […] The Kv4.2 currents were elicited by a 300-ms depolarizing voltage of 10 mV from a holding potential of −80 mV. The steady-state activation of Kv4.2 was measured with the holding potential −80 mV and applied from −80 mV to 70 mV (10-mV increments). Steady-state inactivation of Kv4.2 channel measured with a series of a 300-ms depolarizing test potential of 10 mV followed a 1000-ms prepulse at potentials ranging from −120 to +70 mV with a 5-mV increment.
Data were analyzed using the clampfit (Axon) and Origin 9 software programs. All data points are shown as mean SEM. The significance was estimated using unpaired two-tailed t-tests, and a P < 0.05 was considered statistically significant. n stands for the number of the separate experimental cells. […] The steady-state activation relationship was measured using Boltzmann function (f(V) = 1/{1 + exp[−(V−V1/2)/k]}^4). Steady-state inactivation was measured using the Boltzmann function f(V) = 1/{1 + exp[−(V − V1/2)/k]}.

Kv4.2 V285A = biological target: T3, Kv4.2 V285A (Homo sapiens, UniProt Q9NZV8, V285A); assay: Patch clamp of Kv4.2 mutant V285A in HEK293T cells
T3 construct: expressed in transfected cells; host or cells: HEK293T
T3 sequence (Q9NZV8 1-630 V285A): T1 sequence (Q9NZV8 1-630 F289A) with V285A, A289F
T3 sequence (Q9NS61 1-270 partner): T1 sequence (Q9NS61 1-270 partner)
Description: as §1, §2, §3, §4

CC[C@H](C)[C@H](NC(=O)[C@@H](NC(=O)[C@H](CCCCN)NC(=O)[C@H](CCCNC(=N)N)NC(=O)[C@@H]1CSSC[C@@H]2NC(=O)[C@H](C)NC(=O)[C@H](CCCNC(=N)N)NC(=O)[C@H](CCCCN)NC(=O)[C@H](CO)NC(=O)[C@H](CC(=O)O)NC(=O)[C@@H]3CSSC[C@H](NC(=O)[C@H](CCCNC(=N)N)NC(=O)[C@H](CC(C)C)NC(=O)CNC(=O)[C@H](CCC(=O)O)NC(=O)[C@H](CSSC[C@H](NC(=O)[C@@H](N)Cc4ccc(O)cc4)C(=O)N[C@@H](CCC(N)=O)C(=O)N[C@@H](CCCCN)C(=O)N[C@@H](Cc4c[nH]c5ccccc45)C(=O)N[C@@H](CCSC)C(=O)N[C@@H](Cc4c[nH]c5ccccc45)C(=O)N[C@@H]([C@@H](C)O)C(=O)N3)NC2=O)C(=O)N[C@@H](CCCCN)C(=O)N[C@@H](CC(C)C)C(=O)N[C@@H](Cc2c[nH]c3ccccc23)C(=O)N1)[C@@H](C)CC)C(=O)O [JZTX-V, Jingzhaotoxin-V]
reduction of sensitivity to the toxin vs WT Kv4.2 (Kv4.2 F289A): ~11 fold
inhibition at 0.1 µM (Kv4.2; HEK-293T, read-out: inhibition of Kv4.2 potassium current): > 90%
V1/2 of steady-state activation (G–V curve) (Kv4.2; in presence of 10 nM JZTX-V, +20 mV in absence): +30 mV
half-maximal inactivation potential (Vin1/2) (Kv4.2; in presence of 10 nM JZTX-V, −44.5 mV without): −50.0 mV
reduction of sensitivity to the toxin vs WT Kv4.2 (Kv4.2 V285A): ~7 fold

From PMC6476928 (Frontiers in Pharmacology, 2019)
